Data published in patent US10328018B2, “Cosmetic use of the essential oil of Laserpitium siler L. against the signs of aging of the skin and as a skin antioxidant” (L'OREAL, priority 2012, dated 2019).
Marks after values point to notes of the source that are not given here.

Key:
Collagen IV = assay: Production of collagen IV by normal human keratinocytes (in situ immunolabeling, image analysis); format: cell-based; settings: TGF-β at 10 ng/ml, NHEK, 72 hours
Procedure: The purpose of this study was to evaluate the effects of the essential oil of Laserpitium Siler L. according to example 1 on the dermo-epidermal junction marker (Coll. IV) modulated during aging by immunohistochemistry techniques.
• Culture medium: Keratinocyte-SFM supplemented with: • Epidermal Growth Factor (EGF) 0.25 ng/ml • Pituitary extract (PE) 25 μg/ml • Gentamicin 25 μg/ml • Test medium: Keratinocyte-SFM supplemented with: • Gentamicin 25 μg/ml
Normal human keratinocytes (NHEK—Ref: K341) were seeded and cultured in a culture medium (Keratinocyte-SFM for 24 hours). The culture medium was replaced by the test medium containing, or not containing (control), the test compounds or reference compounds (TGF-β at 10 ng/ml), then the cells were incubated for 72 hours at 37° C., 5% CO2.
After incubation, the culture medium was removed and the cells were rinsed, fixed and permeabilized.
The cells were then labeled with the primary antibody targeted against the protein of interest (Collagen IV).
The relative quantification was carried out by image analysis after in situ immuno labeling.
The image acquisition was carried out with a high-resolution imaging system: INCell Analyser™ 1000.

type I procollagen = assay: Synthesis/secretion of type I procollagen by ELISA (CICP) on NHDF dermal fibroblasts; format: cell-based, human; settings: 100 μM, 72 h, control without treatment=100%
Procedure: The study consists in evaluating, on NHDF (Normal Human Dermal Fibroblasts) dermal fibroblasts, the effects of the essential oil of […]. of example 1, at two concentrations, over the following parameters: • the synthesis of type I procollagen by ELISA (CICP, Cross-linked C-telopeptides of Type I collagen) after 72 h of contact, and • the abundance of MMP-1 secreted in the culture medium after 72 h of contact. The study was carried out on NHDF human dermal fibroblasts (ATCC, CRL-2522, origin: foreskin) cultured in monolayer in a medium of DMEM (Invitrogen, 31885-049) and antibiotics (penicillin/streptomycin, Invitrogen, 15140-122), and cultured in serum-free medium for studies on type I collagen and on MMP-1. The fibroblasts were seeded in 24-well plates, 24 h before the treatment with the test and reference elements. For the measurement of the synthesis/secretion of type I procollagen and for the quantification of MMP-1, the test elements and also the reference elements (TGF-β1 (Transforming Growth Factor-β1) for MMP-1 and vitamin C for CICP) were applied for 72 h in the absence of serum. The supernatants of the cultures were harvested after 72 h of treatment with the active agents and the reference element (in this case, vitamin C at 1000 μM). These were frozen at -20° C. until the day of the analysis. […]

MMP-1 = assay: Abundance of MMP-1 secreted in culture medium of NHDF dermal fibroblasts (pro-MMP-1 ELISA); format: cell-based, human; settings: 2.5 ng/ml, 72 h, control without treatment=100%
Procedure: The study consists in evaluating, on NHDF (Normal Human Dermal Fibroblasts) dermal fibroblasts, the effects of the essential oil of Laserpitium Siler L. of example 1, at two concentrations, over the following parameters: • the synthesis of type I procollagen by ELISA (CICP, Cross-linked C-telopeptides of Type I collagen) after 72 h of contact, and • the abundance of MMP-1 secreted in the culture medium after 72 h of contact.
The study was carried out on NHDF human dermal fibroblasts (ATCC, CRL-2522, origin: foreskin) cultured in monolayer in a medium of DMEM (Invitrogen, 31885-049) and antibiotics (penicillin/streptomycin, Invitrogen, 15140-122), and cultured in serum-free medium for studies on type I collagen and on MMP-1.
The fibroblasts were seeded in 24-well plates, 24 h before the treatment with the test and reference elements.
For the measurement of the synthesis/secretion of type I procollagen and for the quantification of MMP-1, the test elements and also the reference elements (TGF-β1 (Transforming Growth Factor-β1) for MMP-1 and vitamin C for CICP) were applied for 72 h in the absence of serum. […]
The quantification of MMP-1 was carried out with a specific kit (Human pro-MMP-1 Quantikine ELISA, R&D System), according to the instructions given by the supplier.

TGF-β: positive control / reference compound at 10 ng/ml in the collagen IV test
increase in expression of collagen IV compared to the control (Collagen IV): 594%

O=C1O[C@H]([C@@H](O)CO)C(O)=C1O [Vitamin C]
CICP (protein abundance) (type I procollagen): 160%***

TGF-β1: Transforming Growth Factor-β1, reference element for MMP-1
MMP-1 (protein abundance) (MMP-1): 47%***
